Experimental data from BindingDB's records for PubMed 7796807 (Synaptic Pharmaceutical, 1995).

The molecules below were run against 5-hydroxytryptamine receptor 4 (Rattus norvegicus, UniProt Q62758).
5-hydroxytryptamine receptor 4, sequence (Q62758 whole entry): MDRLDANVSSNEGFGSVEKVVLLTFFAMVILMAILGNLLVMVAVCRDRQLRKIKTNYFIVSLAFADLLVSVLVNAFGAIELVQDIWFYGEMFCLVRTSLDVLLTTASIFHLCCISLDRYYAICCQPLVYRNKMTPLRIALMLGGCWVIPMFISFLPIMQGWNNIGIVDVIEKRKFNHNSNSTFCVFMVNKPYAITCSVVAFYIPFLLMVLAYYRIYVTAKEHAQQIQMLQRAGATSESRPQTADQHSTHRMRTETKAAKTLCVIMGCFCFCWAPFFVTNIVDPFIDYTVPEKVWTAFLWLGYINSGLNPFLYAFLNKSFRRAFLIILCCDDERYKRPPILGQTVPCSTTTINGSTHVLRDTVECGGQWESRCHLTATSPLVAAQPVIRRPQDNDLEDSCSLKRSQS

Compound | Ki
CCCN(CCC)C1CCc2cccc(O)c2C1 (centres undefined) | 1000 nM
CN1C2CCC1CC(OC(=O)c1c[nH]c3ccccc13)C2 (centres undefined) | 544 nM
O=C(c1ccc(F)cc1)C1CCN(CCn2c(=O)[nH]c3ccccc3c2=O)CC1 [3-(2-{4-[(4-fluorophenyl)carbonyl]piperidin-1-yl}ethyl)-1,2,3,4-tetrahydroquinazoline-2,4-dione] | 1000 nM
Cn1cc(CCN)c2cc(O)ccc21 [5-HT,omega-N-Me] | 1450 nM
CCN(CC)C(=O)[C@@H]1C=C2c3cccc4[nH]cc(c34)C[C@H]2N(C)C1 [(4R,7R)-N,N-diethyl-6-methyl-6,11-diazatetracyclo[7.6.1.0^{2,7}.0^{12,16}]hexadeca-1(16),2,9,12,14-pentaene-4-carboxamide] | 1000 nM
COc1cc(N)c(Cl)cc1C(=O)NC1CCN2CCCC1C2 (centres undefined) [NSC_3035240] | 243 nM
CNS(=O)(=O)Cc1ccc2[nH]cc(CCN(C)C)c2c1 [Sumax] | 1000 nM
COc1cc(N)c(Cl)cc1C(=O)NC1CN2CCC1CC2 (centres undefined) [ZACOPRIDE,R] | 808 nM
COc1ccc2[nH]cc(CCN)c2c1 [tryptamine, 5-Methoxy] | 401 nM
